Patent publication US7645751B2, “Mandelic acid derivatives and their use as thrombin inhibitors” (AstraZeneca, priority 2000, dated 2010)
Structures can show the parent of a compound that is named as a salt.

Columns and labels:
[1] = Test G: determination of in vitro stability in liver microsomes (human); format: in vitro ADME; conditions: 37° C., up to 60 min, NADH/NADPH
Description: (§1) Liver microsomes are prepared from Sprague-Dawley rats and human liver samples according to internal SOPs. The compounds are incubated at 37° C. at a total microsome protein concentration of 3 mg/mL in a 0.05 mol/L TRIS buffer at pH 7.4, in the presence of the cofactors NADH (2.5 mmol/L) and NADPH (0.8 mmol/L). The initial concentration of compound is 5 or 10 μmol/L. Samples are taken for analysis up to 60 minutes after the start of the incubation. The enzymatic activity in the collected sample is immediately stopped by adding 20% […] at a volume corresponding to 3.3% of the total sample volume. The concentration of compound remaining (FINAL CONC) in the 60 min. sample is determined by means of LCMS using a sample collected at zero time as reference (START CONC). The % of degraded thrombin inhibitor is calculated as: […]

[2] = Test G: determination of in vitro stability in liver microsomes (rat); format: in vitro ADME; conditions: 37° C., up to 60 min, NADH/NADPH
Description: as §1

Row | melting point [°C] | Molecule | conversion to the corresponding active inhibitor (free amidine) in liver microsomes from humans [1] | conversion to the corresponding active inhibitor (free amidine) in liver microsomes from rats [2]
1 | 86 to 87 | N=C(N)c1cnc(CNC(=O)[C@@H]2CCN2C(=O)[C@H](O)c2cc(Cl)cc(OC(F)F)c2)nc1 (as salt: TFA) [Example 36, Ph(3-Cl)(5-OCHF2)—(R)CH(OH)C(O)-Aze-NH—CH2-((5-amidino)-2-pyrimidinyl)] | – | –
2 | – | NC(=NO)c1ccc(CNC(=O)[C@@H]2CCN2C(=O)[C@H](O)c2cc(Cl)cc(OC(F)F)c2)cc1 [Example 2, Ph(3-Cl)(5-OCHF2)—(R)CH(OH)C(O)-Aze-Pab(OH)] | converted to the corresponding active inhibitor (free amidine) | converted to the corresponding active inhibitor (free amidine)
3 | – | CON=C(N)c1ccc(CNC(=O)[C@@H]2CCN2C(=O)[C@H](O)c2cc(Cl)cc(OC(F)(F)F)c2)cc1 [Example 7, Ph(3-Cl)(5-OCF3)—(R)CH(OH)C(O)-Aze-Pab(OMe)] | converted to the corresponding active inhibitor (free amidine) | converted to the corresponding active inhibitor (free amidine)
4 | – | CON=C(N)c1ccc(CNC(=O)[C@@H]2CCN2C(=O)[C@H](CO)c2cc(Cl)cc(OC(F)(F)F)c2)cc1 [Example 11, Ph(3-Cl)(5-OCF3)—(S)CH(CH2OH)C(O)-Aze-Pab(OMe)] | converted to the corresponding active inhibitor (free amidine) | converted to the corresponding active inhibitor (free amidine)
5 | – | CON=C(N)c1ccc(CNC(=O)[C@@H]2CCN2C(=O)[C@H](O)c2cc(Cl)cc(OC(F)F)c2)cc1 [Example 12, Ph(3-Cl)(5-OCHF2)—(R)CH(OH)C(O)-Aze-Pab(OMe)] | converted to the corresponding active inhibitor (free amidine) | converted to the corresponding active inhibitor (free amidine)
6 | – | CON=C(N)c1ccc(CNC(=O)[C@@H]2CCN2C(=O)[C@H](O)c2cc(Cl)cc(OCC(F)(F)F)c2)cc1 [Example 16, Ph(3-Cl)(5-OCH2CF3)—(R)CH(OH)C(O)-Aze-Pab(OMe)] | converted to the corresponding active inhibitor (free amidine) | converted to the corresponding active inhibitor (free amidine)
7 | – | CON=C(N)c1ccc(CNC(=O)[C@@H]2CCN2C(=O)[C@H](O)c2cc(Cl)cc(OCC(F)F)c2)cc1 [Example 18, Ph(3-Cl)(5-OCH2CHF2)—(R)CH(OH)C(O)-Aze-Pab(OMe)] | converted to the corresponding active inhibitor (free amidine) | converted to the corresponding active inhibitor (free amidine)
8 | – | CON=C(N)c1ccc(CNC(=O)[C@@H]2CCN2C(=O)[C@H](O)c2cc(Cl)cc(OCF)c2)cc1 [Example 20, Ph(3-Cl)(5-OCH2F)—(R)CH(OH)C(O)-Aze-Pab(OMe)] | converted to the corresponding active inhibitor (free amidine) | converted to the corresponding active inhibitor (free amidine)
9 | – | CON=C(N)c1ccc(CNC(=O)[C@@H]2CCN2C(=O)[C@H](O)c2cc(Cl)cc(OCCF)c2)cc1 [Example 22, Ph(3-Cl)(5-OCH2CH2F)—(R)CH(OH)C(O)-Aze-Pab(OMe)] | converted to the corresponding active inhibitor (free amidine) | converted to the corresponding active inhibitor (free amidine)
10 | – | CON=C(N)c1ccc(CNC(=O)[C@@H]2CCN2C(=O)[C@H](O)c2cc(Cl)cc(OC(CF)CF)c2)cc1 [Example 24, Ph(3-Cl)(5-OCH(CH2F)2)—(R)CH(OH)C(O)-Aze-Pab(OMe)] | converted to the corresponding active inhibitor (free amidine) | converted to the corresponding active inhibitor (free amidine)
11 | – | CON=C(N)c1ccc(CNC(=O)[C@@H]2CCN2C(=O)[C@H](O)c2cc(F)cc(OC(F)F)c2)cc1 [Example 26, Ph(3-F)(5-OCHF2)—(R)CH(OH)C(O)-Aze-Pab(OMe)] | converted to the corresponding active inhibitor (free amidine) | converted to the corresponding active inhibitor (free amidine)
12 | – | CON=C(N)c1ccc(CNC(=O)[C@@H]2CCCN2C(=O)[C@H](O)c2cc(Cl)cc(OC(F)F)c2)cc1 [Example 33, Ph(3-Cl)(5-OCHF2)—(R)CH(OH)—C(O)-Pro-Pab(OMe)] | converted to the corresponding active inhibitor (free amidine) | converted to the corresponding active inhibitor (free amidine)
13 | – | CO/N=C(\N)c1cnc(CNC(=O)[C@@H]2CCN2C(=O)[C@H](O)c2cc(Cl)cc(OC(F)F)c2)nc1 [Example 37, Ph(3-Cl)(5-OCHF2)—(R)CH(OH)C(O)-Aze-NH—CH2-((5-methoxyamidino)-2-pyrimidinyl)] | converted to the corresponding active inhibitor (free amidine) | converted to the corresponding active inhibitor (free amidine)
14 | – | CO/N=C(\N)c1cc(F)c(CNC(=O)[C@@H]2CCN2C(=O)[C@H](O)c2cc(Cl)cc(OC(F)F)c2)c(F)c1 [Example 40, Ph(3-Cl)(5-OCHF2)—(R)CH(OH)C(O)-Aze-Pab(2,6-diF)(OMe)] | converted to the corresponding active inhibitor (free amidine) | converted to the corresponding active inhibitor (free amidine)
15 | – | CCON=C(N)c1ccc(CNC(=O)[C@@H]2CCN2C(=O)[C@H](O)c2cc(Cl)cc(OC(F)F)c2)cc1 [Example 43, Ph(3-Cl)(5-OCHF2)—(R)CH(OH)C(O)-Aze-Pab(OEt)] | converted to the corresponding active inhibitor (free amidine) | converted to the corresponding active inhibitor (free amidine)
16 | – | CC(C)ON=C(N)c1ccc(CNC(=O)[C@@H]2CCN2C(=O)[C@H](O)c2cc(Cl)cc(OC(F)F)c2)cc1 [Example 45, Ph(3-Cl)(5-OCHF2)—(R)CH(OH)C(O)-Aze-Pab(OiPr)] | converted to the corresponding active inhibitor (free amidine) | converted to the corresponding active inhibitor (free amidine)
17 | – | Ph(3-Br)(5-OCHF2)—(R)CH(OH)C(O)-Aze-Pab(OMe) [Example 29] | converted to the corresponding active inhibitor (free amidine) | converted to the corresponding active inhibitor (free amidine)
18 | – | Ph(3-Cl)(5-OCHF2)—(R)CH(OH)C(O)-Aze-Pab(OcBu) [Example 1] | converted to the corresponding active inhibitor (free amidine) | converted to the corresponding active inhibitor (free amidine)
